These results are taken from patent publication US20130317045A1, “THIENOPYRIDINE AND THIENOPYRIMIDINE COMPOUNDS AND METHODS OF USE THEREOF” (AMBIT BIOSCIENCES CORPORATION, priority 2010, published 2013).

In assay [1] the target is T1, JAK2 (Homo sapiens, UniProt O60674).
T1 construct: made in house
As to the kind of experiment: Competition binding assay, JAK2.

The target in assay [2] is T2, TYK2 (Homo sapiens, UniProt P29597).
T2 construct: made in house
The assay can be described thus: Competition binding assay, TYK2.

Assay [3] concerns distinct kinases tested excluding mutant variants, typically 359 or 386 kinases. As to the kind of experiment: Kinase selectivity score from competition binding panel. The following applies: compound at 10 μM; fraction of kinases with inhibition of 90% or greater.
In assay [4] the test system is GM-CSFR/JAK2/STAT5 pathway in CSTF-1 cells. The assay can be described thus: CSTF-1 cell-based reporter assay (beta-lactamase, GM-CSF stimulated). The arrangement: species or system human. The following applies: Homo sapiens; GM-CSF at 2 ng/mL, 4 hours; read-out: Cell Assay: CS TF-1 reporter assay IC50.
The target of assay [5] is T3, JAK3 (Homo sapiens, UniProt P52333).
T3 construct: made in house
T3 sequence (P52333 1-1124): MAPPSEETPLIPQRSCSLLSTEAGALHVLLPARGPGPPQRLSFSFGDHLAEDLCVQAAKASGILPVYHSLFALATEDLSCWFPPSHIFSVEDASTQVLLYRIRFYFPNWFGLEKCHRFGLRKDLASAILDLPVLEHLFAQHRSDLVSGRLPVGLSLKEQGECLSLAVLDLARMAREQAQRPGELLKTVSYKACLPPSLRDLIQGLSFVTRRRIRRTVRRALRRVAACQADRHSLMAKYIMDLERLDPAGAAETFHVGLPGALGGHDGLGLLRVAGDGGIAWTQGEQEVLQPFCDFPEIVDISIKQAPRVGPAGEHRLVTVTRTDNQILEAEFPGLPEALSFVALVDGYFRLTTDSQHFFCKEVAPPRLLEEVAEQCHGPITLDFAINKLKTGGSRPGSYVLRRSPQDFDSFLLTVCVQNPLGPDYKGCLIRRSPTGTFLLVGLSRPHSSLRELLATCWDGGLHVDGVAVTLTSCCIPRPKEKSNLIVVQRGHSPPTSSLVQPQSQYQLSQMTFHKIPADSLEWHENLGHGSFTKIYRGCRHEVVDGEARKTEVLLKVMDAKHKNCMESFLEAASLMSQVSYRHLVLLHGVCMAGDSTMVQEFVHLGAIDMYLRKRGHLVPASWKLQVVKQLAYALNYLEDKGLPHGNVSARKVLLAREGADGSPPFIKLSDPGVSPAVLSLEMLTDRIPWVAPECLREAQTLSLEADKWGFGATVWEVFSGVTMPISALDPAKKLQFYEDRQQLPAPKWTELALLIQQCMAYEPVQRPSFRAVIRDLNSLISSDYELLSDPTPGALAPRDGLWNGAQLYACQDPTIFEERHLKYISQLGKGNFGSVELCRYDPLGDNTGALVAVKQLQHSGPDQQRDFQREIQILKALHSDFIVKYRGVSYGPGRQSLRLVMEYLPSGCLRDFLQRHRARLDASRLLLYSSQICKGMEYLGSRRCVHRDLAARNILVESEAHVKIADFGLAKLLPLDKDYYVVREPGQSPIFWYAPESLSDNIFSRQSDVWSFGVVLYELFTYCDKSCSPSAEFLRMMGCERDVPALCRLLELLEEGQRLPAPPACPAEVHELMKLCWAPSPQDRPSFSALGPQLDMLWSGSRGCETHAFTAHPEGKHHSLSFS
The assay can be described thus: Competition binding assay, JAK3.

T2 sequence (P29597 whole entry): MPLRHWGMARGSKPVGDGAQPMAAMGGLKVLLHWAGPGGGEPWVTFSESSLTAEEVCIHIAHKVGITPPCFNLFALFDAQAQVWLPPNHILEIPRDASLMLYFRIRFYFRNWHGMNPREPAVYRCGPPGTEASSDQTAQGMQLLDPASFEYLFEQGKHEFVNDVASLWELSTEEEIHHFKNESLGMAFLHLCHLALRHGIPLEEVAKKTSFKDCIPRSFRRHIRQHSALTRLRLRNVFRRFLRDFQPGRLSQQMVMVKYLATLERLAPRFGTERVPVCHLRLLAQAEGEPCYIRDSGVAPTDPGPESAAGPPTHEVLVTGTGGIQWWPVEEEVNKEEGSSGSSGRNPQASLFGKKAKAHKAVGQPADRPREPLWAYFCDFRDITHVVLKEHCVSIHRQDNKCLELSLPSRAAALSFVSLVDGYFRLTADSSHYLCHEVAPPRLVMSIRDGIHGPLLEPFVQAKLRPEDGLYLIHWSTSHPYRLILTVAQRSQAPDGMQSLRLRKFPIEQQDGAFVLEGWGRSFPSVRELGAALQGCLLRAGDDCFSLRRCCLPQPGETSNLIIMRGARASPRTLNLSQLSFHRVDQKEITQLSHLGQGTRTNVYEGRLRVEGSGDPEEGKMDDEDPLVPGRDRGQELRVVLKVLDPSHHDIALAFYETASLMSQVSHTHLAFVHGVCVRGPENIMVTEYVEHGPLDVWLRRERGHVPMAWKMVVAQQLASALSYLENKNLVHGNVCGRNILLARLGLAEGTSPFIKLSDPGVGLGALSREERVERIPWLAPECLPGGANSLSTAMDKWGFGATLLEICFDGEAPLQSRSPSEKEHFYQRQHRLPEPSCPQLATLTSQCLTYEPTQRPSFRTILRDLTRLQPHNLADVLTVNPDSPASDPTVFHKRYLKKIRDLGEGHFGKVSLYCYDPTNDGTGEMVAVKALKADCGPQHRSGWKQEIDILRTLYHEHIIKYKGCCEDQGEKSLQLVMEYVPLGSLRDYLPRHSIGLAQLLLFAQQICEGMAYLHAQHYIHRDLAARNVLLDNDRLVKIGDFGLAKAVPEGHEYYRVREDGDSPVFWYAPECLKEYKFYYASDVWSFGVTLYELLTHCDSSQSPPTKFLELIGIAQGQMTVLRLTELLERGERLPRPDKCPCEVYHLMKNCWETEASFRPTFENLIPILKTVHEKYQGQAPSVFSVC
T1 sequence (O60674 whole entry): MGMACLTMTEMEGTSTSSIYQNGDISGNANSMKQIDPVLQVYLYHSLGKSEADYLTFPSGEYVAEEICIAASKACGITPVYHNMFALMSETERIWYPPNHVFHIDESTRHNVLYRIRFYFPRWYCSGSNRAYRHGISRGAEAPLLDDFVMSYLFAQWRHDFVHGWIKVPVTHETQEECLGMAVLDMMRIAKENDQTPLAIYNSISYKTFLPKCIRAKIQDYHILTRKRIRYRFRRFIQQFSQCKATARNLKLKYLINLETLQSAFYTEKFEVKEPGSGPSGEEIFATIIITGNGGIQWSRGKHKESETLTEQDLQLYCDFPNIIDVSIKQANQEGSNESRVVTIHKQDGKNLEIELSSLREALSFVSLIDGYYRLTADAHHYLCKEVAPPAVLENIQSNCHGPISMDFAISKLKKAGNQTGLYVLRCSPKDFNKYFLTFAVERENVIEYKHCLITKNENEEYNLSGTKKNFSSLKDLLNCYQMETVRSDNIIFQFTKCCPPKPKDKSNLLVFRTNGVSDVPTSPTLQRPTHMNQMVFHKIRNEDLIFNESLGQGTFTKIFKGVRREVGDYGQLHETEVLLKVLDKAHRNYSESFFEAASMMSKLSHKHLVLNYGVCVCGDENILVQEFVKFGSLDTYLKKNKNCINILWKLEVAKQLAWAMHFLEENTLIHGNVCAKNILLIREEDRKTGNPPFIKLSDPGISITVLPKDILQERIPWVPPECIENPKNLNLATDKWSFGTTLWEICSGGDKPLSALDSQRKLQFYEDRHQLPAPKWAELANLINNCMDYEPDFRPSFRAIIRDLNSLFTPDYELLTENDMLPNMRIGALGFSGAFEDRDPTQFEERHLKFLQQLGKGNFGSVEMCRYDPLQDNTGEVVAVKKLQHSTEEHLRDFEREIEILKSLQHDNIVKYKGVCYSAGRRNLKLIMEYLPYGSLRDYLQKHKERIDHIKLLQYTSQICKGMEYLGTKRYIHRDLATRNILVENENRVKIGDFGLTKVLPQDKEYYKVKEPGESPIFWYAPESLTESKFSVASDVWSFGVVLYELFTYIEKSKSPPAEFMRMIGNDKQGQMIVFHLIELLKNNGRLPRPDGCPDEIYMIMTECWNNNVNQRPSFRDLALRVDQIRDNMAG

On to `Cc1csc2nc(C(O)c3ccc(F)cc3)nc(Nc3cc[nH]n3)c12` (racemic) [Example 13, (R,S)-(4-(1H-pyrazol-3-ylamino)-5-methylthieno[2,3-d]pyrimidin-2-yl)(4-fluorophenyl)methanol], for which the Kd in assay [1] was > 0.01 µM; in assay [2], > 0.1 µM; in assay [5] it was > 0.1 µM. Further, the “S-Score: S(10) at 10 μM” value in assay [3] was “A (A ≦ 0.3)”. Also, the IC50 in assay [4] was > 0.5 µM.

Regarding `Cc1cc(Nc2nc(C(O)c3ccc(F)cc3)nc3sccc23)n[nH]1` (racemic) [Example 4, (R,S)-(4-fluorophenyl)(4-(5-methyl-1H-pyrazol-3-ylamino)thieno[2,3-d]pyrimidin-2-yl)methanol], the results for the Kd in assay [1], in assay [2] and in assay [5] were ≤ 0.001 µM, ≤ 0.01 µM and ≤ 0.01 µM, respectively. Also, the “S-Score: S(10) at 10 μM” value in assay [3] is recorded as “B (0.3 < B ≦ 0.4)”. Further, the IC50 in assay [4] was ≤ 0.1 µM.

Regarding `Cc1csc2nc(C(=O)c3ccc(F)cc3)nc(Nc3cc[nH]n3)c12` [Example 12, (4-(1H-pyrazol-3-ylamino)-5-methylthieno[2,3-d]pyrimidin-2-yl)(4-fluorophenyl)methanone], the Kd was > 0.01 µM in assay [1], > 0.1 µM in assay [2] and > 0.1 µM in assay [5]. In assay [3], the “S-Score: S(10) at 10 μM” value is reported as “A (A ≦ 0.3)”. Besides, the IC50 in assay [4] is > 0.5 µM.

Regarding `Cc1cc(Nc2nc(C(=O)c3ccc(F)cc3)nc3ccsc23)n[nH]1` [Example 5, (4-fluorophenyl)(4-(5-methyl-1H-pyrazol-3-ylamino)thieno[3,2-d]pyrimidin-2-yl)methanone], the figures for the Kd in assay [1], in assay [2] and in assay [5] were ≤ 0.001 µM, 0.01 to 0.1 µM and ≤ 0.01 µM, respectively. The “S-Score: S(10) at 10 μM” value in assay [3] is recorded as “A (A ≦ 0.3)”. For the same compound, in assay [4], the IC50 was ≤ 0.1 µM.
